Test results from the NIST ThermoML archive (doi:10.1021/je0201323).

Test: xn = mol fraction of the nth substance listed
Details: for mass density: 101.3 kPa, Liquid, vibrating tube; for surface tension liquid-gas: Pendant drop shape

Cc1ccccc1 [toluene] + CCCCCCC
Details	mass density [kg/m3]	surface tension liquid-gas [mN/m]
278.15 K, x2 = 0	880.3	–
278.15 K, x2 = 0.15	843.7	–
278.15 K, x2 = 0.299	811.3	–
278.15 K, x2 = 0.449	782	–
278.15 K, x2 = 0.595	756.4	–
278.15 K, x2 = 0.749	732.6	–
283.15 K, x2 = 0	875.9	–
283.15 K, x2 = 0.15	839.3	–
283.15 K, x2 = 0.299	807	–
283.15 K, x2 = 0.449	777.8	–
283.15 K, x2 = 0.595	752.2	–
283.15 K, x2 = 0.749	728.4	–
287.81 K, x2 = 0	–	28.93
287.81 K, x2 = 0.299	–	24.49
287.81 K, x2 = 0.449	–	23.38
287.81 K, x2 = 0.595	–	22.41
287.81 K, x2 = 0.749	–	21.58
288.15 K, x2 = 0	871.4	–
288.15 K, x2 = 0.15	834.9	–
288.15 K, x2 = 0.299	802.7	–
288.15 K, x2 = 0.449	773.5	–
288.15 K, x2 = 0.595	747.9	–
288.15 K, x2 = 0.749	724.2	–
293.15 K, x2 = 0	866.9	–
293.15 K, x2 = 0.15	830.5	–
293.15 K, x2 = 0.299	798.3	–
293.15 K, x2 = 0.449	769.1	–
293.15 K, x2 = 0.595	743.6	–
293.15 K, x2 = 0.749	719.9	–
297.82 K, x2 = 0	–	27.76
297.82 K, x2 = 0.15	–	25.16
297.82 K, x2 = 0.299	–	23.47
297.82 K, x2 = 0.449	–	22.17
297.82 K, x2 = 0.595	–	21.35
297.82 K, x2 = 0.749	–	20.56
298.15 K, x2 = 0	862.4	–
298.15 K, x2 = 0.15	826	–
298.15 K, x2 = 0.299	794.1	–
298.15 K, x2 = 0.449	764.7	–
298.15 K, x2 = 0.595	739.2	–
298.15 K, x2 = 0.749	715.6	–
303.15 K, x2 = 0	857.8	–
303.15 K, x2 = 0.15	821.5	–
303.15 K, x2 = 0.299	789.4	–
303.15 K, x2 = 0.449	760.3	–
303.15 K, x2 = 0.595	734.8	–
303.15 K, x2 = 0.749	711.2	–
307.86 K, x2 = 0	–	26.6
307.86 K, x2 = 0.15	–	24.08
307.86 K, x2 = 0.299	–	22.42
307.86 K, x2 = 0.449	–	21.23
307.86 K, x2 = 0.595	–	20.31
307.86 K, x2 = 0.749	–	19.62
308.15 K, x2 = 0	853.2	–
308.15 K, x2 = 0.15	817	–
308.15 K, x2 = 0.299	784.9	–
308.15 K, x2 = 0.449	755.8	–
308.15 K, x2 = 0.595	730.4	–
308.15 K, x2 = 0.749	706.8	–
313.15 K, x2 = 0	848.6	–
313.15 K, x2 = 0.15	812.4	–
313.15 K, x2 = 0.299	780.4	–
313.15 K, x2 = 0.449	751.3	–
313.15 K, x2 = 0.595	725.9	–
313.15 K, x2 = 0.749	702.4	–
317.86 K, x2 = 0	–	25.46
317.86 K, x2 = 0.15	–	23.03
317.86 K, x2 = 0.299	–	21.39
317.86 K, x2 = 0.449	–	20.28
317.86 K, x2 = 0.595	–	19.37
317.86 K, x2 = 0.749	–	18.62
318.15 K, x2 = 0	843.9	–
318.15 K, x2 = 0.15	807.8	–
318.15 K, x2 = 0.299	775.8	–
318.15 K, x2 = 0.449	746.8	–
318.15 K, x2 = 0.595	721.4	–
318.15 K, x2 = 0.749	697.9	–
323.15 K, x2 = 0	839.2	–
323.15 K, x2 = 0.15	803.1	–
323.15 K, x2 = 0.299	771.2	–
323.15 K, x2 = 0.449	742.2	–
323.15 K, x2 = 0.595	716.9	–
323.15 K, x2 = 0.749	693.4	–
327.88 K, x2 = 0	–	24.29
327.88 K, x2 = 0.15	–	22.05
327.88 K, x2 = 0.299	–	20.44
327.88 K, x2 = 0.449	–	19.31
327.88 K, x2 = 0.595	–	18.43
327.88 K, x2 = 0.749	–	17.66
328.15 K, x2 = 0	834.5	–
328.15 K, x2 = 0.15	798.5	–
328.15 K, x2 = 0.299	766.5	–
328.15 K, x2 = 0.449	737.6	–
328.15 K, x2 = 0.595	712.3	–
328.15 K, x2 = 0.749	688.8	–
333.15 K, x2 = 0	829.8	–
333.15 K, x2 = 0.15	793.8	–
333.15 K, x2 = 0.299	761.8	–
333.15 K, x2 = 0.449	733	–
333.15 K, x2 = 0.595	707.7	–
333.15 K, x2 = 0.749	684.2	–

CN(C)C=O [dimethylformamide] + Cc1ccccc1
Details	mass density [kg/m3]	surface tension liquid-gas [mN/m]
278.15 K, x2 = 0	963	–
278.15 K, x2 = 0.1502	949.1	–
278.15 K, x2 = 0.3	935.7	–
278.15 K, x2 = 0.4492	923.1	–
278.15 K, x2 = 0.5998	911	–
278.15 K, x2 = 0.7548	898.9	–
283.15 K, x2 = 0	958.3	–
283.15 K, x2 = 0.1502	944.4	–
283.15 K, x2 = 0.3	931.1	–
283.15 K, x2 = 0.4492	918.6	–
283.15 K, x2 = 0.5998	906.5	–
283.15 K, x2 = 0.7548	894.5	–
287.81 K, x2 = 0	–	36.96
287.81 K, x2 = 0.1502	–	35.22
287.81 K, x2 = 0.3	–	33.42
287.81 K, x2 = 0.4492	–	32.15
287.81 K, x2 = 0.5998	–	31.2
287.81 K, x2 = 0.7548	–	30.17
288.15 K, x2 = 0	953.7	–
288.15 K, x2 = 0.1502	939.9	–
288.15 K, x2 = 0.3	926.6	–
288.15 K, x2 = 0.4492	914.1	–
288.15 K, x2 = 0.5998	902	–
288.15 K, x2 = 0.7548	890	–
293.15 K, x2 = 0	949.1	–
293.15 K, x2 = 0.1502	935.3	–
293.15 K, x2 = 0.3	922	–
293.15 K, x2 = 0.4492	909.5	–
293.15 K, x2 = 0.5998	897.5	–
293.15 K, x2 = 0.7548	885.5	–
297.82 K, x2 = 0	–	35.83
297.82 K, x2 = 0.1502	–	33.97
297.82 K, x2 = 0.3	–	32.5
297.82 K, x2 = 0.4492	–	31.04
297.82 K, x2 = 0.5998	–	30.04
297.82 K, x2 = 0.7548	–	29.17
298.15 K, x2 = 0	944.5	–
298.15 K, x2 = 0.1502	930.6	–
298.15 K, x2 = 0.3	917.4	–
298.15 K, x2 = 0.4492	905	–
298.15 K, x2 = 0.5998	892.9	–
298.15 K, x2 = 0.7548	880.9	–
303.15 K, x2 = 0	939.9	–
303.15 K, x2 = 0.1502	926.1	–
303.15 K, x2 = 0.3	912.9	–
303.15 K, x2 = 0.4492	900.4	–
303.15 K, x2 = 0.5998	888.4	–
303.15 K, x2 = 0.7548	876.4	–
307.86 K, x2 = 0	–	34.65
307.86 K, x2 = 0.1502	–	32.84
307.86 K, x2 = 0.3	–	31.2
307.86 K, x2 = 0.4492	–	29.86
307.86 K, x2 = 0.5998	–	28.98
307.86 K, x2 = 0.7548	–	28.06
308.15 K, x2 = 0	935.4	–
308.15 K, x2 = 0.1502	921.5	–
308.15 K, x2 = 0.3	908.3	–
308.15 K, x2 = 0.4492	895.9	–
308.15 K, x2 = 0.5998	883.8	–
308.15 K, x2 = 0.7548	871.8	–
313.15 K, x2 = 0	930.9	–
313.15 K, x2 = 0.1502	917	–
313.15 K, x2 = 0.3	903.8	–
313.15 K, x2 = 0.4492	891.3	–
313.15 K, x2 = 0.5998	879.2	–
313.15 K, x2 = 0.7548	867.2	–
317.86 K, x2 = 0	–	33.37
317.86 K, x2 = 0.1502	–	31.7
317.86 K, x2 = 0.3	–	30.21
317.86 K, x2 = 0.4492	–	28.77
317.86 K, x2 = 0.5998	–	27.61
317.86 K, x2 = 0.7548	–	26.85
318.15 K, x2 = 0	926.3	–
318.15 K, x2 = 0.1502	912.4	–
318.15 K, x2 = 0.3	899.2	–
318.15 K, x2 = 0.4492	886.7	–
318.15 K, x2 = 0.5998	874.6	–
318.15 K, x2 = 0.7548	862.5	–
323.15 K, x2 = 0	921.7	–
323.15 K, x2 = 0.1502	907.8	–
323.15 K, x2 = 0.3	894.6	–
323.15 K, x2 = 0.4492	882	–
323.15 K, x2 = 0.5998	869.9	–
323.15 K, x2 = 0.7548	857.9	–
327.88 K, x2 = 0	–	32.03
327.88 K, x2 = 0.1502	–	30.5
327.88 K, x2 = 0.3	–	29.04
327.88 K, x2 = 0.4492	–	27.62
327.88 K, x2 = 0.5998	–	26.59
327.88 K, x2 = 0.7548	–	25.7
328.15 K, x2 = 0	917.9	–
328.15 K, x2 = 0.1502	903.3	–
328.15 K, x2 = 0.3	890.1	–
328.15 K, x2 = 0.4492	877.5	–
328.15 K, x2 = 0.5998	865.3	–
328.15 K, x2 = 0.7548	853.2	–
333.15 K, x2 = 0	913.2	–
333.15 K, x2 = 0.1502	899	–
333.15 K, x2 = 0.3	885.7	–
333.15 K, x2 = 0.4492	873	–
333.15 K, x2 = 0.5998	860.7	–
333.15 K, x2 = 0.7548	848.5	–
